Reference: patent US12201626B2, “Bifunctional compositions for the treatment of cancer” (ARMACEUTICA, INC., priority 2018, dated 2025)
Read-outs that look alike come from different tables or passages of the source.

Legend:
HL-60 cells = test: Phosphatidylserine externalization, annexin V-FITC/PI flow cytometry; format: cell-based, human; settings: 24 h
Method: (§1) To determine whether cell death induced by PND was occurring through apoptosis or necrosis, MDA-MB-231 and HL-60 cells were stained with annexin V-FITC and PI and monitored via flow cytometry. Cells were seeded in 24-well plates at a density of 100,000 for adherent MDA-MB-231 and 200,000 HL-60 cells in 1 ml of culture media. After overnight incubation, cells were treated with PND, and incubated for an additional 24 h. For MDA-MB-231 cells, unattached cells were harvested in an ice-cold tube, while adhered cells were detached by using HyQtase (Thermo Fisher) and incubated for around 5 min at 37° C. Both unattached and detached cells harvested from each individual well were washed with ice-cold PBS and centrifuged at 260×g for 5 min. HL-60 were centrifuged directly after the incubation period as they grow in suspension. Cells were then stained with a mixture of annexin V-FITC and PI in 100 μl of binding buffer and incubated on ice in the dark for 15 minutes, following the manufacturer's instructions (Beckman Coulter). Lastly, the cells were resuspended by the addition of 400 μl of ice-cold binding buffer and analysed by flow cytometry (Cytomics FC500; Beckman Coulter). For this series of experiments, cells treated with PBS, as solvent control; treated with H2O2, as a positive control of cytotoxicity; and untreated were included and processed in parallel. For each sample, 10,000 events/cells were collected and analysed using CXP software (Beckman Coulter). Both the experimental samples and their controls were processed similarly and assessed in triplicate. The sum of both early and late stages of apoptosis was calculated to obtain the total percentage of apoptotic cells.

MDA-MB-231 cells = test: as above; format: cell-based, human; settings: 24 h
Method: as §1

[1] = Differential Nuclear Staining (DNS) cytotoxicity assay, panel; format: cell-based; settings: human, read-out: selective cytotoxicity index (SCI)
Text: (§2) In this study, 19 human cell lines were utilized: seven breast human cancer; MDA-MB-468, MCF-7, T47D, HCC1419, HCC70, MDA-MB-231 (triple negative) and its lung metastatic (LM) derivative MDA-MB-231 LM2; four human leukemia/lymphoma cells, HL-60, Ramos, Jurkat and CEM, three human ovarian cancer, Ovcar 8, Ovcar 5 and Ovcar 3, one lung cancer, one melanoma and one pancreatic cell line, A549, A375, Panc-1 respectively. Furthermore, for selectivity/comparative purposes, the cell lines from the non-cancerous origin, MCF-10A, HS-27 were also included. The culture media used for MDA-MB-231, MDA-MB-231 LM2, MDA-MB-468, MCF-7, A549, A375, Panc-1, and HS-27 was DMEM (Hyclone, Logan UT), whereas for T47D, HCC-1419, HCC-70, HL-60, Ramos, Jurkat, CEM, Ovcar 8 and Ovcar 5 was RPMI-1640 (Hyclone, Logan UT). Consistently, both DMEM and RPMI culture media was supplemented with 10% heat-inactivated fetal bovine serum (FBS: Hyclone), 100 U/ml penicillin and 100 μg/ml streptomycin (Thermo Fisher Scientific Inc., Rockford, IL). […] The adherent cells, growing in the logarithmic growth phase at a 60-75% confluence, were detached by utilizing a HyQtase enzyme (Thermo Fisher Scientific Inc.), counted and seeded in 96-well plates at 10,000 cells density in 100 μL of culture medium per well. […]
(§3) To analyze the potential cytotoxic activity of PND, the Differential Nuclear Staining (DNS) assay, which was validated for high-throughput screening (HTS) using live-cell bio-imaging was utilized. […] Montages of 2 by 2 images were captured directly from each individual well of the culture plates by using a multi-well plate reader IN Cell 2000 analyzer, an HTS and high-content analysis (HCA) system (GE Healthcare Life Sciences, Pittsburgh, PA). […] Each experimental data point, as well as controls, were assessed in triplicates. […]
(§4) The selective cytotoxicity index (SCI) denotes the capability of a given experimental compound to kill cancer cells more efficiently while inflicting minimal toxicity to non-cancerous origin cells. Thus, the SCI for PND was calculated as follow: SCI=CC50 of non-cancerous cells/CC50 of cancer cells.

[2] = tested on: panel of human cancer cell lines; test: as above; format: cell-based; settings: Homo sapiens; 72 h, DNS assay; read-out: CC50 over all cancer cell lines tested
Text: as §2, §3, §4

SMILES: COC1=CC=C2Nc3cc(Cl)ccc3C(N=C3C=C(CN4CCCC4)C(=O)C(CN4CCCC4)=C3)=C2N1 [PND, 4-[(7-chloro-2-methoxy-1,5-dihydrobenzo[b][1,5]naphthyridin-10-yl)imino]-2,6-bis(pyrrolidin-1-ylmethyl)cyclohexa-2,5-dien-1-one]
- apoptotic cells (PS externalization) (HL-60 cells; 34 μM): 14.8%
- apoptotic cells (PS externalization) (HL-60 cells; 68 μM): 30.2%
- annexin positive cells (PS externalization) (MDA-MB-231 cells; 11 μM): 67.2%
- annexin positive cells (PS externalization) (MDA-MB-231 cells; 22 μM): 71.1%
- selectivity ratio at 72 h ([1]; leukemia/lymphoma cells): 1.43 to 3.47
- selectivity ratio at 72 h ([1]; several breast cancer cells vs non-cancerous cells): > 2.5
- CC50 [2]: 1.6 to 9.4 µM
